In patent publication US12187704B2, “Triazine derivatives and methods of use thereof” (Ascletis BioScience Co., Ltd., priority 2022, dated 2025):
Where two headings read alike, the source gives them in different places.

What was measured:
in vivo [1] = conditions: monkey, crab-eating monkeys, plasma
Description: (§1) Oral administration: The compounds were administered with a volume ratio of Solutol:PEG400:Tween80:Saline=10:40:2:48 (v/v/v/v) at a dose of 2 mg/kg. At 0.25 h, 0.5 h, 1 h, 2 h, 4 h, 8 h, 10 h, 12 h and 24 h after drug administration, blood was serially collected from the fundus venous plexus in EP tubes containing EDTA, centrifuged at 8000 rpm/min for 5 min and then the upper layer of plasma was frozen at −80° C. and stored for LC-MS/MS analysis.
(§2) Intravenous administration: the compound was administered with 10% DMSO/30% PEG400/60% water (v/v/v) at a dose of 1 mg/kg). At 0.0833 h, 0.25 h, 0.5 h, 1 h, 2 h, 4 h, 8 h, 12 h and 24 h after drug administration, blood was serially collected from the fundic venous plexus in EP tubes containing EDTA, centrifuged at 8000 rpm/min for 5 min and then the upper layer of plasma was frozen at −80° C. and stored for LC-MS/MS analysis.
(§3) The pharmacokinetic parameters were calculated from the blood concentration-time data obtained from the tests using WinNonlin software.

[2] = system: SARS-COV-2 Omicron hCoV-19/USA/MD HP20874/2021 (B.1.1.529) strain; assay: In vitro antiviral activity against SARS-COV-2 Omicron B.1.1.529 in Calu-3 cells; format: cell-based; conditions: Severe acute respiratory syndrome coronavirus 2, Calu-3, 48 h
[3] = system: hCoV-19/USA/Chicago IL/2022 (BA.5.2); assay: In vitro antiviral activity against SARS-COV-2 BA.5.2 in Calu-3 cells; format: cell-based; conditions: Severe acute respiratory syndrome coronavirus 2, Calu-3, 48 h
in vivo [4] = conditions: rat
Description: as §1, with “The compound was” for “The compounds were”, “Solutol:PEG400:Tween80:Saline=10:40:2:48 […]” for “Solutol:PEG400:Tween80:Saline=10:40:2:48 (v/v/v/v)”, “of 10” for “of 2”
as §2, with “with a volume ratio of” for “with”
as §3

[5] = intravenous, 1 mg/kg, read-out: Intravenous injection AUClast
[6] = oral, 2 mg/kg, read-out: Oral AUClast

| Structure (SMILES) | AUC(0-t) (in vivo [1]; [5]) [ng·h/mL] | AUC(0-t) (in vivo [1]; [6]) [ng·h/mL] | EC50 [2] [nM] | EC50 [3] [nM] | AUC(0-t) (in vivo [4]; iv, 1 mg/kg) [ng·h/mL] | AUC(0-t) (in vivo [4]; po, 10 mg/kg) [ng·h/mL] |
| --- | --- | --- | --- | --- | --- | --- |
| [2H]C([2H])([2H])n1cc2cc(Nc3nc(=O)n(-c4cncc(Cl)c4)c(=O)n3Cc3cc(F)c(F)cc3F)c(Cl)cc2n1 [Compound 5] | 38400 | 60700 | 9 | 15 | 19000 | 224000 |
| Cn1cc2cc(Nc3nc(=O)n(-c4cncnc4)c(=O)n3Cc3cc(F)c(F)cc3F)c(Cl)cc2n1 [Compound 1, 6-((6-chloro-2-methyl-2H-indazol-5-yl)amino)-3-(pyrimidin-5-yl)-1-(2,4,5-trifluorobenzyl)-1,3,5-triazine-2,4(1H,3H)-dione] | – | – | 195 | 323 | – | – |
| Cn1cc2cc(Nc3nc(=O)n(-c4cc(F)cnc4Cl)c(=O)n3Cc3cc(F)c(F)cc3F)c(Cl)cc2n1 [Compound 2] | – | – | 98 | 156 | – | – |
| [2H]C([2H])([2H])n1cc2cc(Nc3nc(=O)n(-c4cncc(Cl)c4)c(=O)n3Cc3cc(F)c(F)cc3F)c(Br)cc2n1 [Compound 6] | 35700 | 59000 | 10 | 20 | 19500 | 205000 |
| O=c1nc(Nc2cc3cn(CCO)nc3cc2Cl)n(Cc2cc(F)c(F)cc2F)c(=O)n1-c1cncc(Cl)c1 [Compound 4] | 10300 | 15200 | 13 | 18 | 2040 | 10800 |
| Cn1cc2cc(Nc3nc(=O)n(-c4cc(Cl)cnc4Cl)c(=O)n3Cc3cc(F)c(F)cc3F)c(Cl)cc2n1 [Compound 3] | – | – | 84 | 149 | – | – |
